Results on seven compounds are retold here after patent US9399644B2, “[1,3] dioxolo [4,5-G] quinoline-6(5H)thione derivatives as inhibitors of the late SV40 factor (LSF) for use in treating cancer” (TRUSTEES OF BOSTON UNIVERSITY, priority 2011, dated 2016).

For one test, the target named is T1, LSF (Homo sapiens, UniProt Q12800).
T1 construct: expressed in transfected cells; host or cells: NIH 3T3 cells
T1 sequence (Q12800 1-502): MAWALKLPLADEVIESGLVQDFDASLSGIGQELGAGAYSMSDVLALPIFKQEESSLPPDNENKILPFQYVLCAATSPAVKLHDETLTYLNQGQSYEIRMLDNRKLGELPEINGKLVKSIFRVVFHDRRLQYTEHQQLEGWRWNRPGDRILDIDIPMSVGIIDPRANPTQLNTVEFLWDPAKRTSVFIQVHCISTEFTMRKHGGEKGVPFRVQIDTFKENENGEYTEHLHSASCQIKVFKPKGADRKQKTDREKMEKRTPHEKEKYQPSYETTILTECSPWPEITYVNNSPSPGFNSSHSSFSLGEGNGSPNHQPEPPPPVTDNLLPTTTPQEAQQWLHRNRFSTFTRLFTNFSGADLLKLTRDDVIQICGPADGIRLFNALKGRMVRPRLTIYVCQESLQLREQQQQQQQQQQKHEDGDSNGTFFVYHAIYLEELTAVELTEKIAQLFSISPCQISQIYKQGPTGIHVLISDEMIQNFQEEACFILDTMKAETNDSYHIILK
In words: LSF-dependent reporter assay (dual luciferase). Type of test: cell-based. To be noted: for LSF inhibition (result in words): NIH 3T3 cells transfected with LSF expression vector and LSF-driven firefly luciferase reporter, FIGS. 5-7. How it is done:
NIH 3T3 cells were transfected with the expression construct pEF1α-LSF, an LSF expression vector^1,2; the reporter construct pGL3B-WT4E1b, a firefly luciferase reporter vector driven by LSF^3; phRL-TK, a control renilla luciferase reporter vector; and pEFGP, essentially as previously described^3. Five hours after transfection, either vehicle (DMSO) or compounds (VI, I and II, IV and V) were added (FIG. 7, FIG. 5 and FIG. 6, respectively), keeping DMSO at 0.5%. Cell extracts were harvested 36 hours post-transfection and firefly and renilla luciferase activities measured via a dual luciferase assay (Promega). Five μl of extract was mixed with 30 μl of luciferase assay reagent (Promega), and luminescence measured for 10 seconds using a 20/20n luminometer (Turner Biosystems). Subsequently, 30 μl of Stop & Glo reagent (Promega) was added, and luminescence also measured for 10 seconds. LSF transactivation activity is given as relative luciferase activity, the ratio of firefly to renilla activities, and normalized to the relative luciferase activity in the presence of vehicle alone. Data for this assay are shown in graphically in FIGS. 5-7.

Test [1] deals with hepatocellular carcinoma (HCC). To be noted: single treatment; cited from earlier work.

As for `CCOc1ccccc1C1CC(=S)Nc2cc3c(cc21)OCO3` (racemic) [racemic mixture of compounds I and II, 8-(2-ethoxyphenyl)-7,8-dihydro-[1,3]dioxolo[4,5-g]quinoline-6(5H)-thione], the “effectiveness as LSF inhibitor compared with the racemic mixture of compounds IV and V (FIG. 6) and Compound VI (FIG. 7)” value on LSF (FIG. 5 versus FIG. 6 and FIG. 7) is given as “about 10 times”. Besides, the “LSF inhibition (result in words)” value on LSF is “particularly strong LSF inhibitors”. Besides, the “rank among LSF inhibitors observed by the applicants” value at LSF (experiments thus far performed by the applicants) is on record as “strongest LSF inhibitor so far observed”. Turning to `CCOc1ccccc1-c1cc(=S)[nH]c2cc3c(cc12)OCO3` [Compound III, 8-(2-ethoxyphenyl)-[1,3]dioxolo[4,5-g]quinolin-6(5H)-thione], the “LSF inhibition (result in words)” value at LSF is “exhibit properties as LSF inhibitors”. For the compound `CCOc1ccccc1[C@H]1CC(=S)Nc2cc3c(cc21)OCO3` [Compound II], the “LSF inhibition (result in words)” value at LSF is on record as “exhibit properties as LSF inhibitors”.

With `CCOc1ccccc1[C@@H]1CC(=S)Nc2cc3c(cc21)OCO3` [Compound I], on LSF, the “LSF inhibition (result in words)” value was “exhibit properties as LSF inhibitors”.

With `CCOc1ccccc1[C@H]1Cc2nncn2-c2cc3c(cc21)OCO3` [Compound V], the “LSF inhibition (result in words)” value at LSF is “exhibit properties as LSF inhibitors”. On to `CCOc1ccccc1[C@@H]1Cc2nncn2-c2cc3c(cc21)OCO3` [IV], for which the “LSF inhibition (result in words)” value at LSF was “exhibit properties as LSF inhibitors”. As to `CNC(=O)c1cc(Oc2ccc(NC(=O)Nc3ccc(Cl)c(C(F)(F)F)c3)cc2)ccn1` [sorafenib], the increase of survival in test [1] is on record as 2-3 months.
